What was measured:
[1] = test system: CCI-induced mechanical allodynia; assay: Chronic constriction model of pain, mechanical allodynia; assay type: in vivo, rat
Description: An evaluation of the in vivo activity of compound 8 (R,R) was performed by testing the inhibition potential in mechanical allodynia using the chronic constriction model of pain.
Male Sprague-Dawley (SD) derived rats weighing 180±20 g (at arrival) were provided by BioLasco Taiwan (under Charles River Laboratories Technology Licensee). Space allocation for 5 animals per cage was 45×23×21 cm and maintained in a controlled temperature (20-24° C.) and humidity (50%-80%) environment with 12 hours light/dark cycles for at least three days in Ricerca Biosciences, LLC (Taipei, Taiwan) Laboratory prior to use. Free access to standard lab chow for rats [MF-18 (Oriental Yeast Co., Ltd., Japan)] and tap water was granted. All aspects of this work including housing, experimentation and disposal of animals were performed in general accordance with the Guide for the Care and Use of Laboratory Animals (National Academy Press, Washington, D. C., 2010).
Neuropathic pain behavior was induced by ligation of the sciatic nerve according to the method described by Bennett and Xie [Bennett G. J. and Xie Y. K. A peripheral mononeuropathy in rat that produces disorders of pain sensation like those seen in man, Pain, (1988) 33:87-107]. Briefly, rats were anaesthetized under pentobarbital (50 mg/kg, 5 mL/kg, IP) anesthesia and the sciatic nerve was exposed at mid-thigh level. […]
The rats had access to food and water up to the time of the experiment, and then were placed under inverted Plexiglas cages on a wire mesh rack and allowed to acclimate for 20 to 30 minutes. Allodynia was evaluated using the Chaplin “up/down” method using von Frey hairs [Chaplan, S. R, Bach, F. W., Pogrel, J. W., Chung, J. M. and Yaksh, T. L. Quantitative assessment of tactile allodynia in the rat paw. […]
The threshold of response of the treated rats was compared to respective vehicle treated rats; two-way ANOVA followed by Bonferroni's test was used for comparison between vehicle and treated groups. […] The delta change value at each time point was also calculated. […]

[2] = target: T1, BKB1 receptors (Homo sapiens, UniProt P46663); assay: Calcium Mobilization Assay (FLIPR), IMR-90 cells, BKB1; assay type: cell-based; details: IL-1 induced IMR-90 cells, agonist desArg10-kallidin (DAKD)
T1 construct: Human (IMR-90) lung fibroblast cells expressing native BKB1 receptors; endogenous in cells; host or cells: IMR-90 human lung fibroblasts, treated with human IL-1 to up-regulate BKB1
T1 sequence (P46663 1-353): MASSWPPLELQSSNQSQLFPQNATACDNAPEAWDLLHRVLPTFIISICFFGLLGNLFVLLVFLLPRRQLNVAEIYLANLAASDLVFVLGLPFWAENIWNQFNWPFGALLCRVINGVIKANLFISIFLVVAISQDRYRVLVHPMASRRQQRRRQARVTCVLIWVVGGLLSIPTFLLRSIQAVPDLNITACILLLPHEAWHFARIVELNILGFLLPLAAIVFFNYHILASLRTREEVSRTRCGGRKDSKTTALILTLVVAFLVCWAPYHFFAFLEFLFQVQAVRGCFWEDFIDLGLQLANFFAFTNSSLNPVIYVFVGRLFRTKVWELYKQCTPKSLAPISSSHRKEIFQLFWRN

IC50 [2]: 134 nM
SMILES: COc1ccccc1CN(C(=O)CC(C)C)[C@@H](C(=O)NC[C@H]1CCCO1)c1ccc(C)cc1 [Compound 8 (R,R), 3-methyl-N-(2-methoxybenzyl)-N-{[(1R)-1-(4-methylphenyl)]-2-oxo-2-[(2R)-(tetrahydrofuran-2-ylmethyl)amino]ethyl}butanamide]
significant reversal of CCI-induced mechanical allodynia ([1]; 30 mg/kg IV, 2 and 3 hours post-dose): not at 2 and 3 hours post-dose
inhibition of CCI-induced mechanical allodynia ([1]; 30 mg/kg IV, 1 hour post-dose): 37%
inhibitory activity on allodynia ([1]; chronic constriction model of pain): strong inhibitory activity on allodynia

Source: US9409876B2, “Bradykinin receptor antagonists and pharmaceutical compositions containing them” (DOMPE' FARMACEUTICI S.P.A., priority 2013, dated 2016)
